Several values for one entry are separate records, joined by “and”; a condition that tells them apart may be missing. Equal entries are not always repeated. Where two headings read alike, the source gives them in different places.
Experiments:
P. berghei = assay: Plasmodium berghei four-day suppression test; type: in vivo; conditions: 100–200 mg/kg BID oral, four days, BALB/c mice, with oral aminobenzotriazole 100 mg/kg
Method: AZ compounds were tested by the company for in vivo efficacy in a standard four-day suppression test using the rodent malaria parasite P. berghei. All animal experimentation protocols were approved by the Institutional Animal Ethics Committee registered with the Government of India (Registration No: 5/1999/CPCSEA). Adult male BALB/c mice (purchased from RCC Laboratories, Hyderabad, India) were used for efficacy studies. Animals were randomly distributed to cages quarantined for one week with veterinary examination and then taken into experimentation. Feed and water were given ad libitum. Briefly, male BALB/c mice were infected intraperitoneally with 2×10^7 infected erythrocytes on day 0. […] On day 3, per cent parasitaemia was estimated microscopically from a Giemsa-stained blood smear. The effect of the test compound on parasite growth was calculated as the difference between the mean value of the control group (taken as 100%) and those of the experimental group and expressed as per cent reduction. Reference anti-malarial compounds (chloroquine and artemisinin) were used as positive controls and the results obtained matched those published in the literature. Pharmacokinetics were analysed in healthy as well as infected mice. Data from healthy mice were used for designing the dosing regimen for the efficacy studies. […]

P. falciparum NF54 = assay: SYBR I EC50 determination assay (AstraZeneca); type: cell-based; conditions: Plasmodium falciparum; P. falciparum strain NF54; 72 h; read-out: Pf EC50
Description: (§1) AZ also used a SYBR® I EC50 determination assay, but with P. falciparum NF54 (MRA-1000, MR4, ATCC, Manassas, VA, USA). The per cent inhibition with respect to the control was plotted against the logarithm of the drug concentration. The curve was fitted by non-linear regression using the sigmoidal dose–response (variable slope) formula to yield the concentration–response curves. The concentration at which 50% inhibition was observed was taken as the EC50 value of the compound. A cytotoxicity assay was also performed by AZ, using the human hepatoma Hep G2 cell line and the per cent inhibition and EC50 values were calculated as described for P. falciparum.
AstraZeneca. This group also used a SYBR® I IC50 determination assay. Compounds were serially diluted in 384 well plates (C3570, Corning Life Sciences). 1 µL of compound was dispensed in a 10 point concentration response format using a Biomek Fx liquid dispenser. To this, 50 µL of P. falciparum NF54 (MRA-1000, MR4, ATCC, Manassas, Virginia) ring stage culture at 2% parasitemia and 0.3 % hematocrit was added using a multidrop dispenser. […] After incubation, the % parasitemia in one of the untreated culture control wells was determined by light microscopy. […] Green fluorescence (485 nm excitation/ 530 nm emission) was measured using the Safire 2 fluorimeter (Tecan Instruments). […]

[1] = system: human hepatoma Hep G2 cell line; assay: Hep G2 cytotoxicity assay (AstraZeneca); type: cell-based; conditions: HepG2, 72 h
Description: as §1
The human hepatoma Hep G2 cell line was used for the cytotoxicity assay. 1 µL of compound was dispensed in a 10 point concentration response format using a Biomek Fx liquid dispenser into white sterile 384-well opaque bottom plates (C3570, Corning Life Sciences). To this, 50 µL of Hep G2 cells at 3000 cells/well was added using a Multidrop dispenser. The plates were then incubated at 37 °C for 72 h in a 5% CO2 incubator. Resazurin at a final concentration of 10 µM was added to all wells and the plates were incubated at room temperature for 4 h. Fluorescence (excitation 535 nm; emission 590 nm) was measured in a Safire 2 fluorimeter. The % inhibition with respect to the control was plotted against the logarithm of the drug concentration. […]

hERG = hERG (Homo sapiens, UniProt Q12809); assay: Independently run hERG assay
Sequence of hERG (Q12809 whole entry): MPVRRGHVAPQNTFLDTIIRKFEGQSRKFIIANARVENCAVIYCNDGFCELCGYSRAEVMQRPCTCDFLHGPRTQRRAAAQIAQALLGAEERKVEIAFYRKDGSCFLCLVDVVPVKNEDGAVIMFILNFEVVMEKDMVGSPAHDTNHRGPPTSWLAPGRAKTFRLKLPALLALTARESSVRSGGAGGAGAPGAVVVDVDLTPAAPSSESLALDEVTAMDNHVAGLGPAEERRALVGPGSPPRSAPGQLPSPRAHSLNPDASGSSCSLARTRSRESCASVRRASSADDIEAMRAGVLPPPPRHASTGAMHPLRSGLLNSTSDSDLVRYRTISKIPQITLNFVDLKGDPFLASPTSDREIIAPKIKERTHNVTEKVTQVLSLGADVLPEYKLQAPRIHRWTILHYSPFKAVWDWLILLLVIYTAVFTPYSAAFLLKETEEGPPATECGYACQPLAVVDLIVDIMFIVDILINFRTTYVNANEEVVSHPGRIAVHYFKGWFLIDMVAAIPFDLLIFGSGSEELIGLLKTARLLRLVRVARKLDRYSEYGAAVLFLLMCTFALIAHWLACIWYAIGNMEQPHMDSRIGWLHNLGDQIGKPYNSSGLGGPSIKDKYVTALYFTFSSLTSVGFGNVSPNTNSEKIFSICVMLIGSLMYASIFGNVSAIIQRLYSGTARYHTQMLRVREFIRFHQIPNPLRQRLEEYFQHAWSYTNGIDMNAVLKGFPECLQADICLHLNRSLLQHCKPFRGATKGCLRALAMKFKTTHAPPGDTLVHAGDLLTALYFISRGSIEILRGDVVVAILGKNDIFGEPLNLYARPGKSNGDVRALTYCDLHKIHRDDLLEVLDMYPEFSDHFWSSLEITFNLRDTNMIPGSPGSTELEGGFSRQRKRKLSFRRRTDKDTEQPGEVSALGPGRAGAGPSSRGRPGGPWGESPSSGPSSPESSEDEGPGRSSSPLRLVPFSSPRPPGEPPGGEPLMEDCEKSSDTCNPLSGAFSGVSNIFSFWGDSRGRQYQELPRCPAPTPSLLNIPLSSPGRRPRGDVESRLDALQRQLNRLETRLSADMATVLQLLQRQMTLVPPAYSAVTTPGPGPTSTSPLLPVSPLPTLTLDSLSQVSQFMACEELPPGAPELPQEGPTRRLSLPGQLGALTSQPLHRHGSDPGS

P. falciparum 3D7 = assay: SYBR I dye DNA staining assay (Pfizer), P. falciparum 3D7; conditions: Plasmodium falciparum, 3D7, read-out: EC50 3D7
Method: (§2) Cultures of P. falciparum 3D7 and K1 (both from David Baker, LSHTM) were maintained in O+ human erythrocytes (Research Red Cells and Blood Transfusion Service). 384-well assay plates contained 250 nL of compound at a serial dilution of 1:3 in 100% DMSO, starting from 200 µM (in the plate i.e. 20 µM final) and minimum and maximum controls. After addition of 50 μL of infected erythrocytes per well, plates were incubated at 37°C for three days in 5% CO2, 5% O2 and 90% N2. […] Percent anti-malarial activity was calculated relative to the minimum and maximum controls for each of the 11 drug concentrations and EC50 values determined from the resulting data plot.

[2] = parameters: method as in data provided by Pfizer; conditions: human, single doses from 10 mg to 480 mg; ref data provided by Pfizer; cited from earlier work
[3] = system: P. falciparum Pf3D7^0087/N9; assay: Plasmodium falciparum huSCID humanized mouse model, four-day test
Method: In vivo testing using this model was performed by GSK at Tres Cantos, against P. falciparum 3D7 (in vivo strain Pf3D7^0087/N9generated by GSK using Pf3D7 obtained from Eduardo Dei-Cas, Institute Pasteur, Lille, France [36]) growing in peripheral blood of female NOD-scid IL-2Rγ^null mice engrafted with human erythrocytes, i e, a ‘humanized’ mouse model, following published protocols [36, 37]. Briefly, animals were infected intravenously with 20×10^6 infected erythrocytes on day 0. […] Dosing was initiated at the maximum tolerated dose in mice on day 3 after infection and continued once daily for four days. Each experimental group was n = 3 mice unless otherwise stated. Control animals received vehicle only and a quality control assay used chloroquine at target doses of 3 mg/kg and 7 mg/kg. Venous blood samples for parasitology (2 μL) were taken at days 3, 5, and 7 after infection. Anti-malarial efficacy was assessed using a standard four-day test (i e, at day 7) and blood parasitaemia was measured by fluorescence-activated cell sorting (FACS) analysis [38]. The limit of detection (per cent of P. falciparum) was 0.01%. The number of parasites ×10^6 cells was recorded and data were analysed by non-linear fitting to a logistic equation of log10 (per cent parasitaemia at day 7 after infection) versus the dose level administered.
Per cent parasitaemia at day 7 after infection in treated versus control animals was analysed using a one factor ANOVA with Tukey’s post-test analysis. […] ED90 was calculated similarly. Analysis was performed using WinNonlin 5.2 and GraphPad Prism 5.0.

P. falciparum K1 = assay: SYBR I dye DNA staining assay (Pfizer), P. falciparum K1; conditions: Plasmodium falciparum, K1, read-out: EC50 K1
Method: as §2

[4] = Pharmacokinetics in P. falciparum-infected humanized mice; conditions: for Cmax / Tmax: NOD-scid IL-2Rγ^null, mouse, po; for Cmax / Tmax / AUC (0–t): whole blood; for DNAUC(0–t): dose-normalized AUC(0–t); for DNAUC(0–t) / AUC (0–t): mean (SD)
Method: The pharmacokinetics of compounds after oral administration was determined concurrently in the same mice used for the therapeutic efficacy assay. Samples were taken at 0.25, 0.5, 1, 3, 6, 8, and 24 hours after the first dose. Compound levels were measured in 25 μL blood samples that were mixed with 25 μL of saponin (0.1% in water) and processed under standard liquid–liquid extraction conditions [39]. Pharmacokinetic parameters were calculated using WinNonlin 5.2 non-compartmental analysis.

| Compound | growth inhibition in P. berghei-infected mice (P. berghei) | EC50 (P. falciparum NF54) | EC50 [1] | hERG (hERG) | EC50 (P. falciparum 3D7) | Cmax [2] | ED50 ([3]; Plasmodium falciparum, in Mus musculus, parasitaemia at day 7 after infection, once daily for four days, mean (95% CI)) | AUCED90 ([3]; blood exposure needed to inhibit parasitaemia at day 7 by 90% vs vehicle) | ED90 ([3]; parasitaemia at day 7 after infection, once daily for four days, mean (95% CI)) | EC50 (P. falciparum K1) | Cmax ([4]; 100 mg/kg) | Tmax ([4]; 100 mg/kg) | Cmax ([4]; 300 mg/kg) | Tmax ([4]; 300 mg/kg) | DNAUC(0–t) ([4]; target dose 100 mg/kg oral) | DNAUC(0–t) ([4]; target dose 300 mg/kg oral) | AUC (0–t) ([4]; target dose 100 mg/kg oral) | AUC (0–t) ([4]; target dose 300 mg/kg oral) |
| --- | --- | --- | --- | --- | --- | --- | --- | --- | --- | --- | --- | --- | --- | --- | --- | --- | --- | --- |
| CC(C)Oc1cc(Nc2nc(N[C@@H](C)c3ccc(F)cn3)ncc2Cl)n[nH]1 [AZ-1] | 50–60% | 600 nM | 10400 nM |  |  |  |  |  |  |  |  |  |  |  |  |  |  |  |
| Cc1nc2cnccc2n1-c1ccc(C(=O)N2CCC(=C3c4ccc(Cl)cc4CCc4cccnc43)CC2)cc1 [UK-112,214] |  |  |  | 2.8 µM | 550 nM | 14 to 4145 ng/mL | 80.6 mg/kg | 111.5 μg · h · mL^−1 · day^−1 and 111.5 (106.6, 121.1) μg · h · mL^−1 · day^−1 | 131.3 mg/kg and 131.3 (112.3, 156.7) mg/kg | 600 nM | 8610 ng/mL | 4 h | 17600 ng/mL | 3.3 h | 0.859 (0.32) μg · h · mL^−1 · day^−1 | 1.03 (0.45) μg · h · mL^−1 · day^−1 | 72.1 (2.7) μg · h · mL | 231 (101) μg · h · mL |

Reference: publication PMC4021201, “Repositioning: the fast track to new anti-malarial medicines?” (Malaria Journal, 2014)
